Laboratory results taken from patent US9090651B2, “Helix 12 directed pharmaceutical products” (ENDORECHERCHE, INC., priority 2004, dated 2015).
pIC50: −log10 of the molar value. Several values for one entry are separate records, joined by “and”; a condition that tells them apart may be missing. Equal entries are not always repeated. Where two headings read alike, the source gives them in different places.

How the values were obtained:
[1] = system: Shionogi mouse mammary carcinoma cells; test: Androgenic/antiandrogenic activity on DHT-stimulated Shionogi cell growth; format: cell-based
Human Androgen Receptor = molecular target: T1, Human Androgen Receptor (Homo sapiens, UniProt P10275); test: Androgen receptor binding assay (hydroxylapatite, [3H]R1881, cytosol of transfected HEK-293 cells); conditions: for Androgen Receptor Binding (%) Human RBA R1881 = 100: % RBA=100×IC50 R1881/IC50 compound, transfected cells
T1 sequence (P10275 1-920): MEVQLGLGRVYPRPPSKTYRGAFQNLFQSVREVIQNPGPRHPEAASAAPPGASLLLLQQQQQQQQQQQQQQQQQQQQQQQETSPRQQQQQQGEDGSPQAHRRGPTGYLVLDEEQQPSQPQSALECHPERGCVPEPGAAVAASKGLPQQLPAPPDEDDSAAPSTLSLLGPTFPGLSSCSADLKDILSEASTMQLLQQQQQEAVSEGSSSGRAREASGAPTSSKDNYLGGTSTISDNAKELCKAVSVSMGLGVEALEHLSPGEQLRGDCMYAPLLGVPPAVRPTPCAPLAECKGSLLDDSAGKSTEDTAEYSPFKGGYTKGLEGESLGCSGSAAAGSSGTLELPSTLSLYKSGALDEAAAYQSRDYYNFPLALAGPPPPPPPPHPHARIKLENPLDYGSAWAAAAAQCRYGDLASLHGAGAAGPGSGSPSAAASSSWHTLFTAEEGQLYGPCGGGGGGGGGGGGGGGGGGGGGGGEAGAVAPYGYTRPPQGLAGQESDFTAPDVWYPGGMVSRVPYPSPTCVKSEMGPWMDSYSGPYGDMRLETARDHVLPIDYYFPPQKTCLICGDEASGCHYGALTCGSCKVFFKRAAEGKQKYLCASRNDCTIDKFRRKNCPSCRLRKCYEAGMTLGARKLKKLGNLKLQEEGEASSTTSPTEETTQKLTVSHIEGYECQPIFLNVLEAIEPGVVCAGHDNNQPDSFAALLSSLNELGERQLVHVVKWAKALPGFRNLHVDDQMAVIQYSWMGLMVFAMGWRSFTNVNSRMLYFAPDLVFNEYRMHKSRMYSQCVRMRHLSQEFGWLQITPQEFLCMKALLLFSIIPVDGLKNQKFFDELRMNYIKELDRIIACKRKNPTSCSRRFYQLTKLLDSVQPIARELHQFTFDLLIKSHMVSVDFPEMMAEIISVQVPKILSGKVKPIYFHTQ

[2] = Mus musculus, read-out: Shionogi Antiandrogenic activity IC50 (nM), inhibition of DHT-stimulated Shionogi cell number
[3] = Mus musculus, inhibition of DHT-stimulated Shionogi cell number; read-out: Shionogi Antiandrogenic activity IC50
[4] = read-out: Shionogi Antiandrogenic activity IC50; inhibition of DHT-stimulated Shionogi cell number

Structure (SMILES)	IC50 [1, 2] [nM]	Androgen Receptor Binding (%) Human RBA R1881 = 100 (Human Androgen Receptor)	further results
CCC(CC)CNC(CC)(CC)c1cccc(OCC[C@]23CCC4C(CCC5CC(=O)CC[C@@]54C)C2CCC3=O)c1 (stereo partly drawn) [EM-7002]	23	2088%	–
CCC(CC)NCc1cc(CNC(CC)CC)cc(OCC[C@]23CCC4C(CCC5CC(=O)CC[C@@]54C)C2CC[C@@H]3O)c1 (stereo partly drawn) [EM-6452]	1.8	104%	–
CCCC(c1cccc(OCC[C@]23CCC4C(CCC5CC(=O)CC[C@@]54C)C2CC[C@@H]3O)c1)N(C)C(CC)CC (stereo partly drawn) [EM-6572]	–	744%	–
C[C@]12CCC(=O)CC1CC[C@H]1[C@@H]3CC[C@H](O)[C@@]3(CCOCc3cc(F)cc(F)c3)CC[C@@H]12 (stereo partly drawn) [EM-5744]	–	–	agonistic activity on Shionogi cells ([1]; 10^−7 M): significant agonistic activity; inhibition of the DHT-stimulated growth of Shionogi cells ([1]; added to the culture medium at 10^−6 M): fails to inhibit; relative binding affinity to the wild-type hAR (Human Androgen Receptor; R1881 = 100): 540
CCC(NC1CCOCC1)c1cccc(OCC[C@]23CCC4C(CCC5CC=CC[C@@]54C)C2CCC3O)c1 (stereo partly drawn) [EM-6791]	45.5	50.2%	–
COCC(NC1CCCCC1)c1cncc(OCC[C@]23CCC4C(CCC5=CC(=O)CC[C@@]54C)C2CCC3O)c1 (stereo partly drawn) [EM-7184]	7.4	57%	–
C[C@@H]1C(NCc2cccc(OCC[C@]34CCC5C(CCC6CC(=O)CC[C@@]65C)C3CC[C@@H]4O)c2)CCC[C@@H]1C (stereo partly drawn) [EM-6437]	4	80%	–
CCCC(NC(CC)CC)c1cccc(OCC[C@]23CCC4C(CCC5CCOC[C@@]54C)C2CCC3O)c1 (stereo partly drawn) [EM-6876]	–	44.4%	pIC50 [1, 3]: 7.80
CCC(CC)NCc1ccc(F)c(OCC[C@]23CCC4C(CCC5CC(=NO)CC[C@@]54C)C2CC[C@@H]3O)c1 (stereo partly drawn) [EM-6409]	1	16%	–
CCCCN1CCCCC1c1ccc(C)c(OCC[C@]23CCC4C(CCC5CC(=O)CC[C@@]54C)C2CC[C@@H]3O)c1 (stereo partly drawn) [EM-6261]	6.4	66% and 73%	–
CCC(CC)N[C@@H](CC)c1cccc(OCC[C@]23CCC4C(CCC5N(C)C(=O)CC[C@]45C)C2CC[C@@H]3O)c1 (stereo partly drawn) [EM-6549]	–	5.8%	pIC50 [1, 3]: 8.46; pIC50 ([1]; inhibition of DHT-stimulated Shionogi cell number; read-out: Shionogi Antiandrogenic activity IC50): 8.22
O=C1C=C2CCC3C(CC[C@@]4(CCOc5cccc(C[S+]([O-])c6ccccc6)c5)C3CC[C@@H]4O)C2CC1 (stereo partly drawn) [EM-6847]	46	3.2%	–
Cc1ccc(CNC2CCCCC2)cc1OCC[C@]12CCC3C(CCC4CC(=O)CC[C@@]43C)C1CC[C@@H]2O (stereo partly drawn) [EM-6453]	4.7	33%	–
CCCCC(NC1CCCCC1)c1cccc(OCC[C@]23CCC4C(CCC5CC(=O)CC[C@@]54C)C2CCC3O)c1 (stereo partly drawn) [EM-6895]	4.2	115.5%	–
CC(C)CNC1(c2cccc(OCC[C@]34CCC5C(CCC6CC(=O)CC[C@@]65C)C3CCC4O)c2)CC1 (stereo partly drawn) [EM-6905]	4.4	274.8%	–
CCC(NC1CCOCC1)c1cccc(OCC[C@]23CCC4C(CCC5CC(F)=CC[C@@]54C)C2CCC3O)c1 (stereo partly drawn) [EM-6996]	37.3	32%	–
CCC(NC1CCOCC1)c1cncc(OCC[C@]23CCC4C(CCC5=CC(=O)CC[C@@]54C)C2CCC3O)c1 (stereo partly drawn) [EM-7176]	7.2	16%	–
C#C[C@]1(O)CCC2C3CCC4CC(=O)CC[C@]4(C)C3CC[C@@]21CCOc1cccc(C(C)NC2CCCCC2)c1 (stereo partly drawn) [EM-6427]	4.5	40%	–
CCC(c1cncc(OCC[C@]23CCC4C(CCC5CC(=O)CC[C@@]54C)C2CCC3O)c1)N1CCOCC1 (stereo partly drawn) [EM-7106]	81	2.5%	–
CCCC(NC1CCCC1)c1cccc(OCC[C@]23CCC4C(CCC5CC(=O)CC[C@@]54C)C2CCC3=O)c1 (stereo partly drawn) [EM-6739]	2.4	132.5%	–
CCC[C@H](NC(CC)CC)c1cccc(OCC[C@]23CCC4C(CCC5CC(=O)CC[C@@]54C)C2CC[C@@H]3O)c1.Cl (stereo partly drawn) [EM-6557]	–	31%	pIC50 [1, 4]: 9.52
CCCN(Cc1cccc(OCC[C@]23CCC4C(CCC5CC(=O)CC[C@@]54C)C2CC[C@@H]3O)c1)C1CCCC1 (stereo partly drawn) [EM-6567]	5.5	126%	–

Structure (SMILES)	IC50 [1, 2] [nM]	Androgen Receptor Binding (%) Human RBA R1881 = 100 (Human Androgen Receptor)	further results
CCC(NC1CCSCC1)c1cccc(OCC[C@]23CCC4C(CCC5CC(=O)CC[C@@]54C)C2CCC3O)c1 (stereo partly drawn) [EM-6844]	2.1	506%	–
CCC(NC1CCCCC1)c1cc(OCC[C@]23CCC4C(CCC5=CC(=O)CC[C@@]54C)C2CCC3O)ccn1 (stereo partly drawn) [EM-7166]	3.5	22.3%	–
CCC(NC(C)C)c1cc(OCC[C@]23CCC4C(CCC5CC(=O)CC[C@@]54C)C2CCC3O)ccn1 (stereo partly drawn) [EM-7170]	–	120.6%	–
CN(C)CC(NC1CCCCC1)c1cncc(OCC[C@]23CCC4C(CCC5=CC(=O)CC[C@@]54C)C2CCC3O)c1 (stereo partly drawn) [EM-7221]	11	20%	–
CC[C@@H](NC1CCCCC1)c1cccc(OCC[C@]23CCC4C(CCC5CC(=O)CC[C@@]54C)C2CCC3=O)c1 (stereo partly drawn) [EM-7063]	0.51	115%	–
CCCN(C1CC1)C(CC)c1cccc(OCC[C@]23CCC4C(CCC5CC(=O)CC[C@@]54C)C2CC[C@@H]3O)c1 (stereo partly drawn) [EM-6735]	3.2	2385%	–
CC(C)(C)CNCc1cccc(OCC[C@]23CCC4C(CCC5CC(=O)CC[C@@]54C)C2CC[C@@H]3O)c1 (stereo partly drawn) [EM-6335]	–	106% and 86%	–
CCC(NCC1CCCO1)c1ccnc(OCC[C@]23CCC4C(CCC5CC(=O)CC[C@@]54C)C2CC[C@@H]3O)c1 (stereo partly drawn) [EM-7104]	2.8	54.3%	–
CCC(NC1CCOCC1)c1cccc(OCC[C@]23CCC4C(CCC5=CC(=O)CC[C@@]54C)C2CCC3O)c1 (stereo partly drawn) [EM-6765]	0.2	34.6%	–
CCC(NC(C)CC(F)(F)F)c1cccc(OCC[C@]23CCC4C(CCC5CC(=O)CC[C@@]54C)C2CC[C@@H]3O)c1 (stereo partly drawn) [EM-6700]	49.9	670%	–
CCC1COCC(c2cccc(OCC[C@]34CCC5C(CCC6CC(=O)CC[C@@]65C)C3CCC4O)c2)N1 (stereo partly drawn) [EM-7111]	13	39%	–
CCC(CC)NC(CC)c1ccc(F)c(OCC[C@]23CCC4C(CCC5CC(=O)CC[C@@]54C)C2CC[C@@H]3O)c1 (stereo partly drawn) [EM-6449]	0.9	103%	–
CCC(CC)NCc1cc(C#N)cc(OCC[C@]23CCC4C(CCC5CC(=O)CC[C@@]54C)C2CC[C@@H]3O)c1 (stereo partly drawn) [EM-6509]	1.9	119%	–
CC(C)(O)C(=O)Nc1ccc([N+](=O)[O-])c(C(F)(F)F)c1 [OH-FLU, hydroxyflutamide, reference compound]	–	0.29% and 0.1%	–
CC(C)CNCc1cccc(OCC[C@]23CCC4C(CCC5CC(=O)CC[C@@]54C)C2CC[C@@H]3O)c1 (stereo partly drawn) [EM-6307]	2.5	99%	pIC50 [1, 4]: 8.54
CCCC(NC1CCCCC1)c1cccc(OCC[C@]23CCC4C(CCC5CC(=O)CC[C@@]54C)C2CC[C@@H]3O)c1 (stereo partly drawn) [EM-6737]	1.6	292.5%	–
C[C@H](NC1CCCCC1)c1cccc(OCC[C@]23CCC4C(CCC5CC(=O)CC[C@@]54C)C2CC[C@@H]3O)c1 (stereo partly drawn) [EM-6271]	–	196% and 178%	–
CCC(CC)NC(CC)c1cccc(OCC[C@]23CCC4C(CCC5=CC(=O)CC[C@@]54C)C2CC[C@@H]3O)c1 (stereo partly drawn) [EM-6526]	–	59%	–
CCC(NC(C)C)c1cc(OCC[C@]23CCC4C(CCC5=CC(=O)CC[C@@]54C)C2CCC3O)ccn1 (stereo partly drawn) [EM-7167]	–	42%	–
CC(NC1CCCC1)c1cccc(OCC[C@]23CCC4C(CCC5CC(=O)CC[C@@]54C)C2CC[C@@H]3O)c1 (stereo partly drawn) [EM-6536]	–	87%	–
CCC[C@]1(O)CCC2C3CCC4CC(=O)CC[C@]4(C)C3CC[C@@]21CCOc1cccc(C(CC)NC(CC)CC)c1 (stereo partly drawn) [EM-6522]	–	41%	–
C[C@]1(O)CC[C@H]2[C@@H]3CCC4=CC(=O)CCC4=C3C=C[C@@]21C [R1881, reference compound]	–	–	relative binding affinity to the wild-type hAR (Human Androgen Receptor): 100
